pIC50: −log10 of the molar value. Calls of active or inactive are those of the source. The rule behind the calls is not given here.
Experiments:
Assay type in all cases: functional, cell-based
[1] = system: HeLa; assay: Induction of apoptosis in human HeLa cells assessed as caspase-9 activation at 100 uM by Western blot
[2] = system: HeLa; assay: Induction of apoptosis in human HeLa cells assessed as increase in pro-apoptotic Bax protein at 100 uM after 24 hrs by Western blot
[3] = system: HeLa; assay: Induction of apoptosis in human HeLa cells assessed as caspase-8 activation at 100 uM by Western blot
[4] = system: HeLa; assay: Induction of apoptosis in human HeLa cells assessed as caspase-3 activation at 100 uM by Western blot
[5] = system: HeLa; assay: Induction of apoptosis in human HeLa cells assessed as increase in pro-apoptotic Bak protein at 100 uM after 24 hrs by Western blot
[6] = system: HeLa; assay: Induction of apoptosis in human HeLa cells assessed as fragmented apoptotic bodies at 100 uM after 24 hrs by DAPI staining
[7] = system: HeLa; assay: Induction of apoptosis in human HeLa cells assessed as PARP cleavage at 100 uM by Western blot
[8] = system: HeLa; assay: Induction of apoptosis in human HeLa cells assessed as cytochrome C release from mitochondria at 100 uM after 24 hrs by confocal microscopy
[9] = system: HeLa; assay: Induction of apoptosis in human HeLa cells at 100 uM after 24 hrs by TUNEL assay
[10] = system: HeLa; assay: Induction of apoptosis in human HeLa cells at 100 uM after 48 hrs by TUNEL assay
[11] = system: HeLa; assay: Antiproliferative activity against human HeLa cells after 48 hrs by MTT assay

With `C=CC1CCC2(O)C(C=C)(C1)CC1(O)CC(O)C=CC12O` (configuration not stated) the Activity [1] was “Active”, the Activity [2] was “Active” and the Activity [3] was “Active”. The Activity [4] was “Active”, the Activity [5] was “Active” and the Activity [6] was “Active”. For the same compound, the Activity [7] was “Active”, the Activity [8] was “Active” and the Activity [9] was “Active”. The Activity [10] was “Active”, the Activity [11] was “Dose-dependent effect” and the pIC50 [11] was 4.09.

Source: ChEMBL document CHEMBL1143263, “HY253, a novel compound isolated from Aralia continentalis, induces apoptosis via cytochrome c-mediated intrinsic pathway in HeLa cells” (Bioorg Med Chem Lett, 2009)
